Experimental data published in patent US20260232658A1, “AZETIDINYL BENZOXAZOLE COMPOUNDS AND THEIR USE AS MER AND AXL INHIBITORS” (DONG-A ST CO., LTD., priority 2022, published 2026).

Key:
human MER (528-end) = molecular target: T1, human MER (528-end) (Homo sapiens, UniProt Q12866); assay: HTRF kinase activity biochemical assay, MER; settings: recombinant kinase, 10 uM ATP, 30 minutes pre-incubation; read-out: HTRF MERTK IC50;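 further: phosphorylation of a biotin-tagged tyrosine kinase substrate detected by Eu3+-cryptate antibody and streptavidin-XL665 time-resolved fluorescence, read after 1 h at room temperature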
T1 construct: human MER (528-end); purchased Carnabio, Japan
T1 sequence (Q12866 528-999 limits assumed): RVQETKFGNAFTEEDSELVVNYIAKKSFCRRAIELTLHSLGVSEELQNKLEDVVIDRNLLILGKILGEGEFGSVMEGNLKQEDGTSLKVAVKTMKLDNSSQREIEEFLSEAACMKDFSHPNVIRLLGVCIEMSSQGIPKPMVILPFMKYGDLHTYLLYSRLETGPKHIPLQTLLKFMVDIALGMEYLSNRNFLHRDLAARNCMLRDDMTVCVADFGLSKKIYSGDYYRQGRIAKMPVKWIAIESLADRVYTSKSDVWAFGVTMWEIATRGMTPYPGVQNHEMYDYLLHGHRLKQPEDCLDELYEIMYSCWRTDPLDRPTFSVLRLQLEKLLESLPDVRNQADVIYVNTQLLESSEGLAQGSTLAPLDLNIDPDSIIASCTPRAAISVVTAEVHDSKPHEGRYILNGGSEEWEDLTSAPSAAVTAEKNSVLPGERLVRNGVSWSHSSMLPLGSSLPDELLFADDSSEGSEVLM

TYRO3 (455-end) = molecular target: T2, TYRO3 (455-end) (Homo sapiens, UniProt Q06418); assay: HTRF kinase activity biochemical assay, TYRO3; settings: recombinant kinase, 10 uM ATP, 30 minutes pre-incubation; read-out: HTRF TYRO IC50;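 further: biotinylated tyrosine kinase substrate phosphorylation detected via streptavidin-XL665 and Eu3+-cryptate anti-phospho antibody time-resolved fluorescence, read after 1 h detection at room temperature, 384-well format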
T2 construct: TYRO3 (455-end); purchased SignalChem, Canada
T2 sequence (Q06418 455-890 limits assumed): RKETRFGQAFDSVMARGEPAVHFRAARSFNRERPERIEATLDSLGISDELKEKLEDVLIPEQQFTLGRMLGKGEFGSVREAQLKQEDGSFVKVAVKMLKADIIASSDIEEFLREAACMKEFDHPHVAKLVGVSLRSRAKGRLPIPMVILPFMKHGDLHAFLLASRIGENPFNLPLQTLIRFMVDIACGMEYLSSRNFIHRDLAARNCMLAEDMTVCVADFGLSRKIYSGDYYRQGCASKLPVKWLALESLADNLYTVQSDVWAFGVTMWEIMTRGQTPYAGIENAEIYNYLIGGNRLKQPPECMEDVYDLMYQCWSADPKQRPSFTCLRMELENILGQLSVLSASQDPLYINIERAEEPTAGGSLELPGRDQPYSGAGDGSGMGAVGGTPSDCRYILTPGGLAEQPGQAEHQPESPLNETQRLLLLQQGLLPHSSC

human AXL (473-end) = molecular target: T3, human AXL (473-end) (Homo sapiens, UniProt P30530); assay: HTRF kinase activity biochemical assay, AXL; settings: recombinant kinase, 10 uM ATP, 30 minutes pre-incubation; read-out: HTRF AXL IC50;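 further: phosphorylation of a biotinylated tyrosine kinase substrate detected via Eu3+-cryptate anti-TK antibody and streptavidin-XL665, fluorescence read after a 1 h incubation at room temperature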
T3 construct: human AXL (473-end); purchased SignalChem, Canada
T3 sequence (P30530 473-894 limits assumed): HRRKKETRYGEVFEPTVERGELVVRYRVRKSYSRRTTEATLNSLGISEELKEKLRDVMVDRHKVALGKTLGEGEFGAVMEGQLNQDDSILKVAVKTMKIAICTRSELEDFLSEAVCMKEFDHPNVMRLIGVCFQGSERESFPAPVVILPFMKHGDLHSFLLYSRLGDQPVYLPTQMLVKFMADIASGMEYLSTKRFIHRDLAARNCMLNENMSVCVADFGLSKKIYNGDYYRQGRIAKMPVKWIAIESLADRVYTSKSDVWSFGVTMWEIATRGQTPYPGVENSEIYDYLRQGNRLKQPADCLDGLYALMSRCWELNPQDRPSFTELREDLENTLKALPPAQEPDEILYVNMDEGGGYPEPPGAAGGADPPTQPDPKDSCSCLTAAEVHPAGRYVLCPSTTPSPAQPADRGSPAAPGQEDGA

| SMILES | IC50 (human MER (528-end)) | IC50 (TYRO3 (455-end)) | IC50 (human AXL (473-end)) |
| --- | --- | --- | --- |
| Cn1cc(Nc2ncc(C3CN(c4nc5ccc(OCC(C)(C)C#N)cc5o4)C3)nc2C(N)=O)cn1 [Example 107, 6-{1-[6-(2-cyano-2-methylpropoxy)-1,3-benzoxazol-2-yl]azetidin-3-yl}-3-[(1-methyl-1H-pyrazol-4-yl)amino]pyrazine-2-carboxamide] | < 1 nM | 46 nM | 1.5 nM |
| Cn1cc(Nc2ncc(C3CN(c4nc5ccc(C6CCCCC6)cc5o4)C3)nc2C(N)=O)cn1 [Example 7, 6-[1-(6-cyclohexyl-1,3-benzoxazol-2-yl)azetidin-3-yl]-3-[(1-methyl-1H-pyrazol-4-yl)amino]pyrazine-2-carboxamide] | 3 nM | 680 nM | 6 nM |
| Cn1cc(Nc2ncc(C3CN(c4nc5ccc(C6=CCOCC6)cc5o4)C3)nc2C(N)=O)cn1 [Example 11, 6-{1-[6-(3,6-dihydro-2H-pyran-4-yl)-1,3-benzoxazol-2-yl]azetidin-3-yl}-3-[(1-methyl-1H-pyrazol-4-yl)amino]pyrazine-2-carboxamide] | 1 nM | 280 nM | 2 nM |
| Cn1cc(Nc2ncc(C3CN(c4nc5ccc(CCC6(O)COC6)cc5o4)C3)nc2C(N)=O)cn1 [Example 45, 6-(1-{6-[2-(3-hydroxyoxetan-3-yl)ethyl]-1,3-benzoxazol-2-yl}azetidin-3-yl)-3-[(1-methyl-1H-pyrazol-4-yl)amino]pyrazine-2-carboxamide] | 3 nM | 620 nM | 9 nM |
| NC(=O)c1nc(C2CN(c3nc4ccc(F)cc4o3)C2)cnc1Nc1cnn(C2CCOCC2)c1 [Example 27, 6-[1-(6-fluoro-1,3-benzoxazol-2-yl)azetidin-3-yl]-3-{[1-(oxan-4-yl)-1H-pyrazol-4-yl]amino}pyrazine-2-carboxamide] | 1 nM | 82 nM | 3 nM |
| Cn1cc(Nc2ncc(C3CN(c4nc5ccc(CC(=O)N6CCC[C@@H]6C(F)(F)F)cc5o4)C3)nc2C(N)=O)cn1 [Example 81, 3-[(1-methyl-1H-pyrazol-4-yl)amino]-6-[1-(6-{2-oxo-2-[(2R)-2-(trifluoromethyl)pyrrolidin-1-yl]ethyl}-1,3-benzoxazol-2-yl)azetidin-3-yl]pyrazine-2-carboxamide] | 1 nM | 1070 nM | 3 nM |
| Cn1cc(Nc2ccc(C3CN(c4nc5ccc(OCC(C)(C)OC(=O)CN)cc5o4)C3)nc2C(N)=O)cn1 [Example 108, 1-{[2-(3-{6-carbamoyl-5-[(1-methyl-1H-pyrazol-4-yl)amino]pyridin-2-yl}azetidin-1-yl)-1,3-benzoxazol-6-yl]oxy}-2-methylpropan-2-yl glycinate] | < 1 nM | 880 nM | 4 nM |
| Cn1cc(Nc2ncc(C3CN(c4nc5ccc(C(=O)NC6CC6)cc5o4)C3)nc2C(N)=O)cn1 [Example 53, 2-(3-{6-carbamoyl-5-[(1-methyl-1H-pyrazol-4-yl)amino]pyrazin-2-yl}azetidin-1-yl)-N-cyclopropyl-1,3-benzoxazole-6-carboxamide] | 4 nM | 2670 nM | 2 nM |
| CN(C)C(=O)Cn1cc(Nc2ncc(C3CN(c4nc5ccccc5o4)C3)nc2C(N)=O)cn1 [Example 34, 6-[1-(1,3-benzoxazol-2-yl)azetidin-3-yl]-3-({1-[2-(dimethylamino)-2-oxoethyl]-1H-pyrazol-4-yl}amino)pyrazine-2-carboxamide] | 8 nM | 620 nM | 19 nM |
| Cn1cc(Nc2ncc(C3CN(c4nc5ccc(OCCO)cc5o4)C3)nc2C(N)=O)cn1 [Example 40, 6-{1-[6-(2-hydroxyethoxy)-1,3-benzoxazol-2-yl]azetidin-3-yl}-3-[(1-methyl-1H-pyrazol-4-yl)amino]pyrazine-2-carboxamide] | 2 nM | 460 nM | 8 nM |
| Cn1cc(Nc2ncc(C3CN(c4nc5ccc(C(C)(C)CO)cc5o4)C3)nc2C(N)=O)cn1 [Example 111, 6-{1-[6-(1-hydroxy-2-methylpropan-2-yl)-1,3-benzoxazol-2-yl]azetidin-3-yl}-3-[(1-methyl-1H-pyrazol-4-yl)amino]pyrazine-2-carboxamide] | 5 nM | 640 nM | 6 nM |
| Cn1cc(Nc2ccc(C3CN(c4nc5ccc(OCCC(C)(C)O)cc5o4)C3)nc2C(N)=O)cn1 [Example 84, 6-{1-[6-(3-hydroxy-3-methylbutoxy)-1,3-benzoxazol-2-yl]azetidin-3-yl}-3-[(1-methyl-1H-pyrazol-4-yl)amino]pyridine-2-carboxamide] | 2 nM | 1370 nM | 7 nM |
| NC(=O)c1nc(C2CN(c3nc4ccc(F)cc4o3)C2)cnc1Nc1cn[nH]c1 [Example 36C, 6-[1-(6-fluoro-1,3-benzoxazol-2-yl)azetidin-3-yl]-3-[(1H-pyrazol-4-yl)amino]pyrazine-2-carboxamide] | 1 nM | > 10000 nM | 3 nM |
| CN(C)C(=O)COc1ccc2nc(N3CC(c4ccc(Nc5cnn(C)c5)c(C(N)=O)n4)C3)oc2c1 [Example 83, 6-(1-{6-[2-(dimethylamino)-2-oxoethoxy]-1,3-benzoxazol-2-yl}azetidin-3-yl)-3-[(1-methyl-1H-pyrazol-4-yl)amino]pyridine-2-carboxamide] | 4 nM | 6800 nM | 26 nM |
| Cn1cc(Nc2ncc(C3CN(c4nc5ccc(OCC(=O)N6CCC6)cc5o4)C3)nc2C(N)=O)cn1 [Example 73, 6-(1-{6-[2-(azetidin-1-yl)-2-oxoethoxy]-1,3-benzoxazol-2-yl}azetidin-3-yl)-3-[(1-methyl-1H-pyrazol-4-yl)amino]pyrazine-2-carboxamide] | 2 nM | 1700 nM | 9 nM |
| Cn1cc(Nc2ncc(C3CN(c4nc5ccc(-c6cnn(C)c6)cc5o4)C3)nc2C(N)=O)cn1 [Example 92, 3-[(1-methyl-1H-pyrazol-4-yl)amino]-6-{1-[6-(1-methyl-1H-pyrazol-4-yl)-1,3-benzoxazol-2-yl]azetidin-3-yl}pyrazine-2-carboxamide] | < 1 nM | 80 nM | 3 nM |
| Cn1cc(Nc2ncc(C3CN(c4nc5ccc(OCC#N)cc5o4)C3)nc2C(N)=O)cn1 [Example 24, 6-{1-[6-(cyanomethoxy)-1,3-benzoxazol-2-yl]azetidin-3-yl}-3-[(1-methyl-1H-pyrazol-4-yl)amino]pyrazine-2-carboxamide] | 2 nM | 130 nM | 3 nM |
| Cn1cc(Nc2ncc(C3CN(c4nc5ccc(OCC(C)(C)OC(=O)CN)cc5o4)C3)nc2C(N)=O)cn1 [Example 113, 1-{[2-(3-{6-carbamoyl-5-[(1-methyl-1H-pyrazol-4-yl)amino]pyrazin-2-yl}azetidin-1-yl)-1,3-benzoxazol-6-yl]oxy}-2-methylpropan-2-yl glycinate] | < 1 nM | 160 nM | 1 nM |
| COC[C@H]1CCCN1C(=O)c1ccc2nc(N3CC(c4cnc(Nc5cnn(C)c5)c(C(N)=O)n4)C3)oc2c1 [Example 64, 6-(1-{6-[(2R)-2-(methoxymethyl)pyrrolidine-1-carbonyl]-1,3-benzoxazol-2-yl}azetidin-3-yl)-3-[(1-methyl-1H-pyrazol-4-yl)amino]pyrazine-2-carboxamide] | < 1 nM | 37 nM | 5 nM |
| COc1cnc(Oc2ccc3nc(N4CC(c5cnc(Nc6cnn(C)c6)c(C(N)=O)n5)C4)oc3c2)nc1 [Example 102, 6-(1-{6-[(5-methoxypyrimidin-2-yl)oxy]-1,3-benzoxazol-2-yl}azetidin-3-yl)-3-[(1-methyl-1H-pyrazol-4-yl)amino]pyrazine-2-carboxamide] | < 1 nM | 100 nM | 2 nM |
